Measured values: patent US20040049353A1, “System and method for monitoring water using bivalve mollusks” (priority 2003, published 2004)

Tested on: mollusks
Test: Exposure of mollusks in the water-monitoring system to toxicant-loaded water; shell gape and Degree of Alarm (DOA)
Format: in vivo
Description: Further calibration of the system is performed after one or more mollusk chambers are properly installed. The digital circuitry or computer 39 then monitors the gape of the mollusk during approximately the first three days after installation. From the gape values derived during this period, the computer derives a natural maximum gape value for the individual mollusk. Subsequent calculations based on output from the mollusk chamber 15 are based on the percentage of gape, i.e., the percentage of the maximum gape output value that the presently detected gape output value represents.
When the system 3 contains a number of mollusk chambers 15, the individual mollusk percentage gape data for all of the mollusks of the system is totaled, and the average percentage gape value calculated periodically per sampling interval by computer 38. This mean data value Gi is the variable used as the mollusk output data for determining if toxicants are present in the water being screened.
In the present specification, Gi means the current average mollusk gape data, Gi−1 means the most recent earlier mollusk output value, Gi−2 the next earlier mollusk output variable, etc. The oldest of the gape values is Gi−n+1. Preferably, the set of data values Gi−n+1 to Gi are stored in a FIFO (first-in, first-out) stack data structure in the computer doing the analysis. The stack acts as a shift register, shifting earlier data values as the new data value Gi is acquired. Preferably the value of n is 30, and the data values G are acquired every half-second.
A variable referred to as Degree of Alarm (“DOA”) is derived from the mean mollusk output data using one of a variety of analysis formulae or methods, ranging from simpler models to more complex systems based on neural net technology that can identify the particular toxicant types that are present in the water and causing a reaction by the mollusks.
According to an aspect of the invention, the variance over time of the gape values is one of the best statistical indicators of the pumping of the mollusk. By the term variance, what is meant is a determination of the variability of the gape values from a mean value, which may be determined or expressed using a variety of functions. Particularly preferred, however, is the classical calculation of variance as: [formula]
wherein V is the mean variance in gape over a recent period of time, preferably 30 seconds, R is the mean regression of the gape over the period (regression herein meaning the slope of the best-fit line through the data values of the time period). M may be the traveling mean as defined above, or may be the mean gape taken over another longer period, preferably about one hour.
An implementation of this method is shown by the graphs of FIGS. 7 to 10. Water being screened by a system as described previously was loaded with sulphuric acid, resulting in a drop in pH as shown in the graph of FIG. 7.
An implementation of such a DOA method using a Logistic calculation, with a variance factor added for variances over 50, is illustrated by the graphs of FIGS. 12 to 16.
In this example, a system as in Example 3 was used, only the toxicant introduced was copper (as aqueous CuSO4), as shown in FIG. 17.

For [Cl-].[Na+] [chloride, NaCl], the DOA output (Logistic calculation with variance factor for variances over 50, at 0.5 hours, chloride concentration still relatively low) was “greater than 5” and the “raw gape data, decreasing gape over time” value (gradually increasing concentration of chloride (as aqueous NaCl)) was “less than 40 % of normal maximum gape”.

In the case of O=S(=O)([O-])[O-].[Cu+2] [copper, CuSO4], the DOA values (Logistic calculation with variance factor, out of a possible 10, between 0.5 and 1.0 hours, copper concentration still relatively low) is reported as “exceed 8” and the “gape when DOA exceeded 8” value (copper (as aqueous CuSO4), between 0.5 and 1.0 hours) is reported as 50%.

For O=S(=O)(O)O [sulphuric acid], the “DOA values (spike)” value (DOA=(V·|R|)/M, water loaded with sulphuric acid, before 200 minutes) was “greater than 100”, the “average percentage gape of the mollusks” value (water loaded with sulphuric acid (drop in pH), shortly after 200 minutes) was “less than 10 % of the normal maximum” and the “percentage gape when variance spikes” value (water loaded with sulphuric acid, variance over ten most recent values spikes shortly before 200 minutes) was 40%.
